From ChEMBL document CHEMBL1138016, “Azaadamantane benzamide 5-HT4 agonists: gastrointestinal prokinetic SC-54750” (Bioorg Med Chem Lett, 2004)
pKi: −log10 of the molar value.

Columns and labels:
Adrenergic receptor beta = Adrenergic receptor beta (Homo sapiens, UniProt P08588+P07550+P13945); experiment: Concentration required for inhibition of beta adrenergic receptor; format: protein assay
[1] = target: Serotonin 2 (5-HT2) receptor (Homo sapiens, UniProt P41595+P28223+P28335); format: protein assay
[2] = target: T1, Serotonin 3 (5-HT3) receptor (Rattus norvegicus, UniProt P35563+Q9JJ16); experiment: Binding affinity towards 5-hydroxytryptamine 3 receptor using [3H]GR-65630 as the radioligand in male rat cortical tissue; format: protein-complex assay
T1 sequence (P35563 whole entry): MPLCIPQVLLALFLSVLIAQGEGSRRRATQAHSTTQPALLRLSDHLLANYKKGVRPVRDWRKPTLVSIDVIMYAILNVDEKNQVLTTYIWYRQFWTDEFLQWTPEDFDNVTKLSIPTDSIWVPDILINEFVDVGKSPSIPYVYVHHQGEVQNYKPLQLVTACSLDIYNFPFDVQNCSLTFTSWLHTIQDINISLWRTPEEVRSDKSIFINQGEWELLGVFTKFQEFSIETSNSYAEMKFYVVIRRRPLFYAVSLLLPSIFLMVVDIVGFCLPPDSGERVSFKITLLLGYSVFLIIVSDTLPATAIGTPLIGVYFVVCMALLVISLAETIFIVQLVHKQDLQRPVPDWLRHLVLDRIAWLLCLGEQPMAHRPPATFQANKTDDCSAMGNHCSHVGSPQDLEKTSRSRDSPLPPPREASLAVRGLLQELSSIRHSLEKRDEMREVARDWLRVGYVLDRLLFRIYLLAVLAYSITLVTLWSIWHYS
T1 sequence (Q9JJ16 whole entry): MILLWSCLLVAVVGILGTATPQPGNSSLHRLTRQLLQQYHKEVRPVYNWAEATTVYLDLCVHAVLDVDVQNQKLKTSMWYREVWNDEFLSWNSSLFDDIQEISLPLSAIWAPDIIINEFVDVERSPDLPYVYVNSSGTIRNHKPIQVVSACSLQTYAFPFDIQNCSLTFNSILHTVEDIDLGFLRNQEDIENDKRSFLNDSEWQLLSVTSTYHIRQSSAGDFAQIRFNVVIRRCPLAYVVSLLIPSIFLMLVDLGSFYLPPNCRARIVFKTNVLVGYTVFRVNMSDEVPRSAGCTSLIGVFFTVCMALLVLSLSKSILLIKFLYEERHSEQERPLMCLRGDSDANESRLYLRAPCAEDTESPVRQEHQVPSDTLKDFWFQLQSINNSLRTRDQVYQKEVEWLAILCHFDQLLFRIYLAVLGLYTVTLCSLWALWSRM

[3] = target: T2, Adrenergic receptor alpha-2 (Homo sapiens, UniProt P08913+P18825+P18089); experiment: Concentration required for inhibition of alpha-2 adrenergic receptor; format: protein assay
T2 sequence (P08913 whole entry): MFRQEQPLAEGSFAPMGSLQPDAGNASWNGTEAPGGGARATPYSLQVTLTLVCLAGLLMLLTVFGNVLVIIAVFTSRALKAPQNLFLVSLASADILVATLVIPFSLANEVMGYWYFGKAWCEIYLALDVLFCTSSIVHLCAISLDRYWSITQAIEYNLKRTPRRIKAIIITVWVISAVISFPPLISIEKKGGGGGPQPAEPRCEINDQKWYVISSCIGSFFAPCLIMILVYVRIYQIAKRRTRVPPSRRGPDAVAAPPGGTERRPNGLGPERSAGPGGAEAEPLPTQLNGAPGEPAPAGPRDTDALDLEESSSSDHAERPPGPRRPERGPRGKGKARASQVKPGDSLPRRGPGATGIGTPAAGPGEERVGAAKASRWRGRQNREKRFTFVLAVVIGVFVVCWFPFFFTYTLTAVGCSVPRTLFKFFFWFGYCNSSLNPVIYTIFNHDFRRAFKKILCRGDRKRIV
T2 sequence (P18825 whole entry): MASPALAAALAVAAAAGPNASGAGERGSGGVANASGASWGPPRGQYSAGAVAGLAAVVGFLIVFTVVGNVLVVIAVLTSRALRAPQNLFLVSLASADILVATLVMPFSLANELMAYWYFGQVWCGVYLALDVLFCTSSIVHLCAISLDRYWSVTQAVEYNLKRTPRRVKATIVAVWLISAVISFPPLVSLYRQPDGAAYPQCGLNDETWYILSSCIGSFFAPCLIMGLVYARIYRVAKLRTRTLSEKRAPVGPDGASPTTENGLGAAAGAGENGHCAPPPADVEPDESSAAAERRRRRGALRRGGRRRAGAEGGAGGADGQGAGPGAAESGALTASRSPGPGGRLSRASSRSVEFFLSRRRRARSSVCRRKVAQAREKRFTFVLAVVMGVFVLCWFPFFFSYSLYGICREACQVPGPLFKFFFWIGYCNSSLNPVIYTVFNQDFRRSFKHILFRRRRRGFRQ
T2 sequence (P18089 whole entry): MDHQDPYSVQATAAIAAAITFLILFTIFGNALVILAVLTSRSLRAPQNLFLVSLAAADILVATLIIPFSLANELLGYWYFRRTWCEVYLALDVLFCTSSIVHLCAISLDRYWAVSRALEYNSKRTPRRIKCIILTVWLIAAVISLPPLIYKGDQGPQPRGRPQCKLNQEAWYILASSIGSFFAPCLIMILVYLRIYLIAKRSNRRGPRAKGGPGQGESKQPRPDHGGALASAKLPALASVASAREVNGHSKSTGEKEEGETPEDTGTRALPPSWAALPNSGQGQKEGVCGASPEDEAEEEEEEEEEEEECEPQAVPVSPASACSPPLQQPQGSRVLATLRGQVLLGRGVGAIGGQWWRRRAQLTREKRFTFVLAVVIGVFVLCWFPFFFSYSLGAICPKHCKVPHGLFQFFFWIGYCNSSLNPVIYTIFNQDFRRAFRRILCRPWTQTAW

| IC50 (Adrenergic receptor beta) [µM] | IC50 [1] [µM] | pKi [2] | IC50 [3] [µM] | Structure (SMILES) |
| --- | --- | --- | --- | --- |
| > 10 | > 10 | 8.05 | > 10 | COc1cc(N)c(Cl)cc1C(=O)NC1C2CC3CC1CN(C3)C2 (stereo in doubt; 9b) |
| > 10 | > 10 | 7.60 | > 10 | COc1cc(N)c(Cl)cc1C(=O)NCC1C2CC3CC1CN(C3)C2 (stereo in doubt; 9c) |
| > 10 | 1.8 | 6.47 | 6.4 | COc1cc(N)c(Cl)cc1C(=O)NC1C2CC3CC1CN(C3)C2 (stereo in doubt; 9a) |
